The values below come from publication PMC6332232 (Molecules, 2015).

Series [1] in a line: Enzyme kinetics of 4(S)-hydroxyevogliptin glucuronidation in pooled human liver microsomes. It is filed as in vitro ADME. On the procedure:
Therefore, a 20 min incubation time and 0.2 mg/mL microsomal protein concentration were selected for enzyme kinetics experiments. The reaction mixture comprised 50 mM Tris buffer (pH 7.4), 10 mM magnesium chloride, 0.025 mg/mL alamethicin, pooled human liver microsomes (20 μg protein), and various concentrations of 4(S)-hydroxyevogliptin (M2) (10 to 2,000 μM; final acetonitrile concentration not exceeding 0.5%, v/v), and was preincubated for 3 min at 37 °C. The reaction was initiated by adding UDPGA, and the mixture was further incubated (final volume of 100 μL) for 20 min at 37 °C in a shaking water bath. The reaction was stopped by adding 100 μL of MPPI (internal standard, 50 ng/mL) in ice-cold acetonitrile. The mixture was centrifuged at 13,000 rpm for 4 min at 4 °C. […]
Results represent the average of three independent experiments using human liver microsomes and human cDNA-expressed CYP and UGT enzymes. The kinetic parameters (Km and Vmax) for hydroxylation and glucuronidation were determined using the Michaelis-Menten equation [V = Vmax·S/(Km + S)], the Hill equation [V = Vmax·S^n/(Km^n + S^n)], or the isoenzyme equation [V = Vmax1·(S/Km1)/(1 + S/Km1) + Vmax2·(S/Km2)/(1 + S/Km2)] with the Enzyme Kinetics software (version 1.3; Systat Software Inc.). […] The intrinsic clearance (Clint) was calculated as Vmax/Km.

Series [2] is described as follows: Enzyme kinetics of evogliptin hydroxylation in pooled human liver microsomes. The conditions noted are these: single-enzyme kinetics; for Km at 20 min: human, pH 7.4, Km. It is filed as in vitro ADME. The protocol:
Thus, a 20 min incubation time and 0.15 mg/mL microsomal protein concentration were used in subsequent experiments. […] The mixture was centrifuged at 13,000 rpm for 4 min at 4 °C. Subsequently, 50 μL of the supernatant were diluted with 50 μL of deionized water and an aliquot (5 μL) was injected onto the LC-MS/MS system. Results represent the average of three independent experiments using human liver microsomes and human cDNA-expressed CYP and UGT enzymes. […] Systat Software Inc.). In the above-mentioned equations, V was the velocity of the reaction at substrate concentration [S], Vmax was the maximum velocity, Km was the substrate concentration at which the V was half of Vmax, and n is the Hill constant. The intrinsic clearance (Clint) was calculated as Vmax/Km.

Substrate in series [3]: CC(C)(C)OC[C@@H]1C(=O)NCCN1C(=O)C[C@H](N)[C@@H](O)c1cc(F)c(F)cc1F
The experiment in a line: Enzyme kinetics of 4(S)-hydroxyevogliptin glucuronidation in human cDNA-expressed UGT2B4. In kind it is in vitro ADME. Conditions: other: UGT2B4, single-enzyme kinetics; pH 7.4; 37.0 °C. On the procedure: (§1) For the enzyme kinetic study, various concentrations of 4(S)-hydroxyevogliptin (M2) (25 to 2000 μM; final acetonitrile concentration not exceeding 0.5%, v/v) were incubated with human cDNA-expressed UGT2B4 or UGT2B7 enzymes (20 μg protein), 2 mM UDPGA, 0.025 mg/mL alamethicin, and 10 mM magnesium chloride in 50 mM Tris buffer (pH 7.4) for 20 min at 37 °C in a shaking water bath. After adding ice-cold acetonitrile containing internal standard (MPPI, 50 ng/mL), the mixture was centrifuged and diluted as described above, and an aliquot (5 μL) was analyzed using the LC-MS/MS system.
(§2) Results represent the average of three independent experiments using human liver microsomes and human cDNA-expressed CYP and UGT enzymes. The kinetic parameters (Km and Vmax) for hydroxylation and glucuronidation were determined using the Michaelis-Menten equation [V = Vmax·S/(Km + S)], the Hill equation [V = Vmax·S^n/(Km^n + S^n)], or the isoenzyme equation [V = Vmax1·(S/Km1)/(1 + S/Km1) + Vmax2·(S/Km2)/(1 + S/Km2)] with the Enzyme Kinetics software (version 1.3; Systat Software Inc.). In the above-mentioned equations, V was the velocity of the reaction at substrate concentration [S], Vmax was the maximum velocity, Km was the substrate concentration at which the V was half of Vmax, and n is the Hill constant. The intrinsic clearance (Clint) was calculated as Vmax/Km.

Substrate in series [4]: CC(C)(C)OC[C@@H]1C(=O)NCCN1C(=O)C[C@H](N)[C@@H](O)c1cc(F)c(F)cc1F
Nature of the series: Enzyme kinetics of 4(S)-hydroxyevogliptin glucuronidation in human cDNA-expressed UGT2B7. Conditions: other: UGT2B7, Hill equation kinetics; pH 7.4; 37.0 °C. In kind it is in vitro ADME. On the procedure:
as §1, §2

Substrate in the series “not read”: CC(C)(C)OC[C@@H]1C(=O)NCCN1C(=O)C[C@H](N)Cc1cc(F)c(F)cc1F
The experiment in a line: not read. The conditions noted are these: other: CYP3A5, single-enzyme kinetics; pH 7.4; 37.0 °C.

As to `CC(C)(C)OC[C@@H]1C(=O)NCCN1C(=O)C[C@H](N)[C@@H](O)c1cc(F)c(F)cc1F` [4(S)-hydroxyevogliptin], the “Vmax, formation of 4(S)-hydroxyevogliptin glucuronide (M4)” value in series [1] (Hill equation) is on record as 711.4 pmol/mg protein/min. Besides, the Km at 20 min in series [1] (pH 7.4, Hill equation) came to 928 µM. Take `CC(C)(C)OC[C@@H]1C(=O)NCCN1C(=O)C[C@H](N)Cc1cc(F)c(F)cc1F` [evogliptin, (R)-4-((R)-3-amino-4-(2,4,5-trifluorophenyl)butanoyl)-3-(tert-butoxymethyl)-piperazin-2-one]: in series [2] (formation of 4(R)-hydroxyevogliptin (M3)), the Km at 20 min stood at 124 µM. Moreover, the Km at 20 min in series [2] (formation of 4(S)-hydroxyevogliptin (M2)) was 93.4 µM. Besides, in series [2], the “Vmax, formation of 4(R)-hydroxyevogliptin (M3)” value is reported as 113.0 pmol/min/mg protein and the “Vmax, formation of 4(S)-hydroxyevogliptin (M2)” value is 91.9 pmol/min/mg protein.

B1: UGT2B4 (Homo sapiens) (protein)
chain: GKVLVWPTEFSHWMNIKTILDELVQRGHEVTVLASSASISFDPNSPSTLKFEVYPVSLTKTEFEDIIKQLVKRWAELPKDTFWSYFSQVQEIMWTFNDILRKFCKDIVSNKKLMKKLQESRFDVVLADAVFPFGELLAELLKIPFVYSLRFSPGYAIEKHSGGLLFPPSYVPVVMSELSDQMTFIERVKNMIYVLYFEFWFQIFDMKKWDQFYSEVLGRPTTLSETMAKADIWLIRNYWDFQFPHPLLPNVEFVGGLHCKPAKPLPKEMEEFVQSSGENGVVVFSLGSMVSNTSEERANVIASALAKIPQKVLWRFDGNKPDTLGLNTRLYKWIPQNDLLGHPKTRAFITHGGANGIYEAIYHGIPMVGVPLFADQPDNIAHMKAKGAAVSLDFHTMSSTDLLNALKTVINDPLYKENAMKLSRIHHDQPVKPLDRAVFWIEFVMRHKGAKHLRVAAHDLTWFQYHSLDVTGFLLACVATVIFIITKCLFCVWKFVRTGKKGKRD
notes: purchased Corning Life Sciences
Regarding B1, the Km in series [3] is listed as 1,328 μM.

B2: UGT2B7 (Homo sapiens) (protein)
chain: GKVLVWAAEYSHWMNIKTILDELIQRGHEVTVLASSASILFDPNNSSALKIEIYPTSLTKTELENFIMQQIKRWSDLPKDTFWLYFSQVQEIMSIFGDITRKFCKDVVSNKKFMKKVQESRFDVIFADAIFPCSELLAELFNIPFVYSLSFSPGYTFEKHSGGFIFPPSYVPVVMSELTDQMTFMERVKNMIYVLYFDFWFEIFDMKKWDQFYSEVLGRPTTLSETMGKADVWLIRNSWNFQFPYPLLPNVDFVGGLHCKPAKPLPKEMEDFVQSSGENGVVVFSLGSMVSNMTEERANVIASALAQIPQKVLWRFDGNKPDTLGLNTRLYKWIPQNDLLGHPKTRAFITHGGANGIYEAIYHGIPMVGIPLFADQPDNIAHMKARGAAVRVDFNTMSSTDLLNALKRVINDPSYKENVMKLSRIQHDQPVKPLDRAVFWIEFVMRHKGAKHLRVAAHDLTWFQYHSLDVIGFLLVCVATVIFIVTKCCLFCFWKFARKAKKGKND
notes: purchased Corning Life Sciences (Woburn, MA, USA)
Consider B2, for which, in series [4], the Km worked out at 1003.8 µM.

B3: CYP3A5 (Homo sapiens) (protein)
chain: MDLIPNLAVETWLLLAVSLVLLYLYGTRTHGLFKRLGIPGPTPLPLLGNVLSYRQGLWKFDTECYKKYGKMWGTYEGQLPVLAITDPDVIRTVLVKECYSVFTNRRSLGPVGFMKSAISLAEDEEWKRIRSLLSPTFTSGKLKEMFPIIAQYGDVLVRNLRREAEKGKPVTLKDIFGAYSMDVITGTSFGVNIDSLNNPQDPFVESTKKFLKFGFLDPLFLSIILFPFLTPVFEALNVSLFPKDTINFLSKSVNRMKKSRLNDKQKHRLDFLQLMIDSQNSKETESHKALSDLELAAQSIIFIFAGYETTSSVLSFTLYELATHPDVQQKLQKEIDAVLPNKAPPTYDAVVQMEYLDMVVNETLRLFPVAIRLERTCKKDVEINGVFIPKGSMVVIPTYALHHDPKYWTEPEEFRPERFSKKKDSIDPYIYTPFGTGPRNCIGMRFALMNMKLALIRVLQNFSFKPCKETQIPLKLDTQGLLQPEKPIVLKVDSRDGTLSGE
Regarding B3, the kcat in “not read” came to 19.5 pmol/min/pmol CYP.
